From paper PMC9673917 (ACS Infectious Diseases, 2022)

What was measured:
spike protein = settings: Calu-3 cell line; cited from earlier work
RBD-Fc/ACE2-Strep = RBD-Fc/ACE2-Strep (Severe acute respiratory syndrome coronavirus 2, UniProt P0DTC2); assay: biochemical; format: binding, SARS-CoV-2 S protein; human ACE2
[1] = test system: Calu-3 and HEK293-ACE2 cells; settings: Calu-3 and HEK293-ACE2 cell lines
ACE2/RBD interaction [2] = settings: up to 100 μM; cell-free ELISA-type assays; RBD residues 319–541; ref 14 (Bojadzic et al.); cited from earlier work
ACE2/RBD interaction [3] = settings: 150 μM; RBD residues 319–541; ref 11 (Ao et al.); cited from earlier work
ACE2/RBD = settings: read-out: IC50 as ACE2/RBD binding inhibitor, AlphaLISA; ref 16 (Hanson et al.); cited from earlier work

| Molecule | neutralization efficacy (spike protein) | cytotoxicity over active concentration ranges [1] | further results |
| --- | --- | --- | --- |
| REGN10933: monoclonal antibody that targets the spike protein | potent neutralization efficacy |  |  |
| CCCCCCCC/C=C\CCCCCCCC(=O)O [oleic acid] |  | low to moderate cytotoxicity | IC50 (RBD-Fc/ACE2-Strep): 35.3 µM |
| REGN10987: monoclonal antibody that targets the spike protein | potent neutralization efficacy |  |  |
| Cc1ccc(C(=O)Nc2ccc(S(=O)(=O)O)c3cc(S(=O)(=O)O)cc(S(=O)(=O)O)c23)cc1NC(=O)c1cccc(NC(=O)Nc2cccc(C(=O)Nc3cc(C(=O)Nc4ccc(S(=O)(=O)O)c5cc(S(=O)(=O)O)cc(S(=O)(=O)O)c45)ccc3C)c2)c1 [suramin] |  | low to moderate cytotoxicity | inhibition of the ACE2/RBD interaction (ACE2/RBD interaction [2]): did not inhibit; inhibition of ACE2/RBD interaction (ACE2/RBD interaction [3]): around 50% |
| O=C(O[C@@H]1O[C@@H]2COC(=O)c3cc(O)c(O)c(O)c3-c3c(cc(O)c(O)c3O)C(=O)O[C@H]([C@H]1O)[C@@H]2O)c1cc(O)c(O)c(O)c1 [corilagin] |  |  | IC50 (ACE2/RBD): 5.5 µM |
